# Literature values in US7199111B2, “Aqueous ifosfamide compositions for parenteral administration and a process for their preparations” (Bharat Serums & Vaccines Ltd., priority 2002, dated 2007).
# Legend:
# [1] = Ifosfamide in water
# [2] = tested on: mouse; settings: intravenous administration, reported
smiles,measurement,setting,value
"O=P1(NCCCl)OCCCN1CCCl (centres unmarked) [Ifosfamide, 3-(2-chloroethyl)-2-[(2-chloroethyl)amino]-tetrahydro-2H-1,3,2-oxazaphosphorin-2-oxide]",water solubility,[1],about 100 mg/ml
same,LD50,[2],338 mg/kg body weight
